Test results published in patent publication US20030185792A1, “Morphogen analogs of bone morphogenic proteins” (Curis, Inc., priority 1996, published 2003).
Entries after “also recorded” stand apart in the source; their conditions may differ.

B1: OP-1: osteogenic protein-1, a tissue morphogenic protein of the TGF-β superfamily; mature human OP-1 is SEQ ID No. 4 (protein, listed as Homo sapiens)
chain: CKKHELYVSFRDLGWQDWIIAPEGYAAYYCEGECAFPLNSYMNATNHAIVQTLVHFINPETVPKPCCAPTQLNAISVLYFDDSSNVILKKYRNMVVRACGCH

Assays:
[1] = test system: OP-1 receptor-enriched plasma membrane fraction of ROS cells; assay: Radioligand receptor assay: displacement of 125I-labeled OP-1 from ROS cell plasma membranes; assay type: binding, rat
Method: In a second series of experiments, the ability of unlabeled soluble OP-1 and unlabeled peptides F1-2, F2-2, F2-3, H-n2 and H-c2 to displace ^125I labeled soluble OP-1 from ROS cell membranes was measured. The activities of peptides F2-2 and F2-3 relative to soluble OP-1 are shown in FIG. 10A, and the activities of peptides Fi-2, H-n2 and H-c2 relative to soluble OP-1 are shown in FIG. 10B. OP-1 receptor-enriched plasma membranes of ROS cells were incubated for 20 hrs at 4° C. with ^125I-labeled soluble OP-1 and unlabeled peptide. Receptor bound material was separated from unbound material by centrifugation at 39,500×g. The resulting pellet was harvested and washed with 50 mM HEPES buffer, pH 7.4 containing 5 mM MgCl2 and 1 mM CaCl2 Radioactivity remaining in the pellet was determined by means of a gamma counter.
(§1) Assay of peptides: The receptor-binding activities of OP-1 synthetic peptides were determined by a radio-ligand receptor assay using ^125I-labeled OP-1 as ligand, and an OP-1 receptor-enriched plasma membrane fraction of ROS cells. The assay is based on competition between radiolabeled OP-1 and unlabeled OP-1 or peptide for binding to membrane-bound receptor. A well characterized ROS cell based in vitro bio-assay was used to examine the effects of OP-1 peptides on basal as well as OP-1 induced cellular alkaline phosphatase activity.
i. Radio-receptor Assay: The receptor-binding activities of various OP-1 synthetic peptides can be determined by an equilibrium displacement binding isotherm assay using ^125I-labeled OP-1 as ligand and OP-1 receptor-enriched plasma membrane fraction of ROS cells. Highly purified OP-1 can be radioiodinated to a specific activity of 70-78 μCi/ug by a modified procedure of lactoperoxidase method. The percent bindability of radioiodinated OP-1 to excess receptor is 30-37%. Plasma membranes enriched with OP-1 receptors from ROS cells can be isolated as is known in the art. […] In a typical assay, fixed amounts of ^125I-labeled sol. OP-1 (˜80,000 cpm) are incubated with fixed amount of receptor-enriched plasma membrane fraction in the presence (5 μg, for non-specific binding) or absence of excess unlabeled OP-1 (for total binding). Displacement curves are generated with increasing concentrations of OP-1 peptide (0.032-50 μM) or OP-1 standard preparation (5-2000 ng). The assay incubations are carried out in a reaction volume of 300 μl with shaking for 22 hrs. at 4° C. Separation of bound and free ^125I-labeled OP-1 is by centrifugation (39,500×g, 30 minutes). The supernatants are aspirated and pellets are washed before counting in a gamma counter (Packard Instr., Downers Grove, Ill.). The concentration of OP-1 peptide required to give 50% inhibition of total specific binding of ^125I-labeled OP-1 (ED50) is calculated from competitive data.

ROS cells = assay: ROS cell based alkaline phosphatase bioassay; set-up: species or system rat; details: for % increase in OP-1 response relative to the absence of peptide: OP-1 1.33 nM
Method: In a first series of experiments, increasing concentrations of peptides F2-2 (FIG. 9A), F2-3 (FIG. 9B), Hn-2 (FIG. 9C) and Hc-2 (FIG. 9D) were added to ROS cells either alone (open bars) or in combination with 40 ng/ml soluble OP-1 (filled bars) and their effect on alkaline phosphatase activity measured. Soluble OP-1 is the form of OP-1 in which the pro-domain is still attached to the mature portion of OP-1 (see WO 94/03600). A basal alkaline phosphatase activity is shown by the line and represents the alkaline phosphatase activity of cells incubated in the absence of both soluble OP-1 and peptide.
as §1
i. ROS Cell Based Alkaline Phosphatase Assay: OP-1 synthetic peptides that bind OP-1 receptors are further analyzed by in vitro bioassay. This allows defining the role of OP-1 peptides at the receptor-binding site. Some of the OP-1 peptides that effectively interact with receptors could inhibit OP-1 induced target cell responsiveness, thereby acting as functional antagonists. Alternatively, they may mimic OP-1 functions inducing alkaline phosphatase activity in ROS cells. Creative BioMolecules has developed and fully validated ROS cell in vitro assay for OP-1. An assay procedure as described earlier is essentially followed to determine the biological activities of OP-1 peptides. In a typical experiment, rat Osteosarcoma (17/2.8) cells are plated in 96 well plates (3.0×10^4 cells/well) and incubated overnight at 37° C. in 5-6% CO2 incubator. Next day, the plates are examined to make sure that cells are healthy & confluent. Cells are treated with increasing concentrations of OP-1 standard (1-10,000 ng/ml) or OP-1 synthetic peptides (0.02-200 μM) alone or with OP-1 standard prepared in medium containing 1% FBS and incubated for 2 days at 37° C. in 5-6% CO2 incubator. The cellular content of alkaline phosphatase activity is determined by the method of Reddi and Huggins. Enzyme estimations are routinely carried out in 96 well plates. Following removal of culture medium, cells are washed with pre-warmed PBS (150 μl) and further incubated in 100 ul of pre-warmed 1% Triton X-100 for 30 minutes at 37 C. Plates are centrifuged for 10 minutes at full speed, and recovered samples (each 15 μl) are assayed for enzyme activity by adding 90 ul p-nitrophenyl phosphate (Sigma) as a substrate in 0.05 M glycine-NaOH buffer, pH 9.3 and incubating for 20 minutes at 37° C. The reaction is stopped by adding 75 μl of 0.2 N NaOH/well and absorbance at 405/490 nm is measured on a Dynatech MR 700 plate reader. Results are expressed as concentration of peptide inhibitor (with antagonist activity) required to give 50% inhibition of maximum response to OP-1 standard. On the other hand, the activities of peptides that stimulate cell responsiveness (with agonist activity) are expressed relative to OP-1 standard. FIG. 23 illustrates the dose-related effects of OP-1 preparations on stimulation of alkaline phosphatase activity as determined in ROS cell based in vitro assay.

Molecule	ability to displace 125I-labeled soluble OP-1 from ROS cell membranes ([1]; Example 2, FIGS. 10A and 10B)	effect on binding of 125I-labeled OP-1 to the receptor ([1]; Example 3)	behaviour in the alkaline phosphatase assay (agonist/antagonist) (ROS cells; Example 2, alone or with 40 ng/ml soluble OP-1)	effect on basal cell responsiveness (alkaline phosphatase activity) (ROS cells; Example 3, peptide alone, no OP-1)	effect on OP-1 induced cell responsiveness (agonist/antagonist behaviour) (ROS cells; Example 3, peptide together with OP-1)	peptide concentrations at which OP-1 induced responsiveness is potentiated (ROS cells; Example 3, with OP-1)	overall judgement of activity (lead peptides) (ROS cells; Example 3 summary, antagonistic (H-C2) and modulating (F2-3) activity)	% increase in OP-1 response relative to the absence of peptide (ROS cells; peptide 0.01 (unit printed ELM), FIG. 19)	% increase in OP-1 response relative to the absence of peptide (ROS cells; peptide 0.1 (unit printed ELM), FIG. 19)	% increase in OP-1 response relative to the absence of peptide (ROS cells; peptide 1 ELM (so in the source), FIG. 19)	increase of alkaline phosphatase activity relative to soluble OP-1 alone (ROS cells; peptide about 0.01 μM with 40 ng/ml soluble OP-1, FIG. 9B)	effect on basal alkaline phosphatase level (ROS cells; peptide alone, about 0.01 μM, Example 2, FIG. 9B)	affinity (Ka) of OP-1 binding sites ([1]; single class of binding sites in ROS cell plasma membrane preparations)	level of OP-1 response in the absence of peptide (ROS cells; FIG. 19, sub-maximal OP-1 (1.33 nM))
F2-3: SEQ ID No. 19; 16 residues, finger 2 tip 11-residue loop with 5-residue C-terminal extension (CYFDDSSNVICKKYRS; listed as Homo sapiens)	able to completely displace	effectively competed	weak OP-1 agonists	no significant effect	agonistic manner; also recorded: potentiating the cell responsiveness to OP-1	0.01 to 1 µM	highly active	53%	54%	48%	about 20%	increase the basal alkaline phosphatase level		
B1													4.38e+09 M⁻¹	approximately 60 % of maximum
